Data: US20240252694A1, “CONJUGATES COMPRISING COVALENT BINDERS FOR TARGETING INTRACELLULAR KRAS G12C PROTEINS” (RayzeBio, Inc., priority 2021, published 2024)
Where two headings read alike, the source gives them in different places.

Columns and labels:
[1] = tested on: human ERK1 dually phosphorylated at T202/Y204 and ERK2; assay: Phosphorylated ERK1/ERK2 ELISA; type: cell-based; details: phosphorylated ERK in cell lysates after treatment with compounds, sandwich ELISA, cell line not stated
Description: An ERK phosphorylation ELISA kit was used to characterize compounds for KRAS-based cell activity. The sandwich ELISA (RnD Systems. Catalog #DYC1018B) measures human ERK1 that is dually phosphorylated at T202/Y204 and ERK2. Cell lysates from cells before and after treatment with compounds were prepared using kit manufacturer protocols.
All reagents were prepared following the kit's protocol. The wells of a 96-well microtiter plate were coated with 100 μL of 8.0 μg/mL of capture antibody in PBS. The plate was sealed and left to incubate overnight at ambient temperature. After incubation, the wells were washed with 400 μL of Wash Buffer for a total of 3 washes. Wells were then blocked by adding 300 μL of Block Buffer to each well and incubated at ambient temperature for 1-2 hours. After removal of the Block Buffer by aspirating and washing, 100 μL of standards and samples were added to the plate in duplicates and incubated for 2 hours at ambient temperature. The aspiration and wash steps were repeated to remove unbound standard and samples and 100 μL of 400 ng/mL detection antibody was applied to each well. After 2 hours at ambient temperature, detection antibody was removed by washing and 100 μL of Streptavidin-HRP was added to each well. Incubation of Streptavidin-HRP was at ambient temperature for 20 minutes, after which Streptavidin-HRP was removed by washing, 100 μL of Substrate Solution was added to each well and incubated for 20 minutes before 50 μL of Stop Solution was added to each well.
The optical density of each well was immediately analyzed at 450 nm with a wavelength correction at 540 nm. The standards were plotted by averaging the optical density for each replicate and fitted with a four-parameter logistic curve fit. Concentrations of phosphorylated ERK in cell lysate samples were determined by extrapolation from the standard curve and then adjusted for any dilution factors.

[2] = biological target: T1, KRAS (G12C) (Homo sapiens, UniProt P01116, G12C); assay: KRAS G12C Nucleotide Exchange Assay (fixed GTP concentration); type: biochemical
T1 construct: purchased BPS Bioscience 79859
T1 sequence (P01116 1-188 isoform P01116-2 G12C): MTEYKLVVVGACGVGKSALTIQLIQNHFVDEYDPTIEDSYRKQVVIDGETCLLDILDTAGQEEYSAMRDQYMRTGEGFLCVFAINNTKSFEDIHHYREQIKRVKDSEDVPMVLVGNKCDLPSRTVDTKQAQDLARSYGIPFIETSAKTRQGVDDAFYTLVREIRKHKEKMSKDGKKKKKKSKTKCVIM
Description: A KRAS (G12C) Nucleotide Exchange Assay kit was used to evaluate compound antagonistic binding. The assay kit (BPS Bioscience. Catalog #79859) utilizes KRAS (G12C) labeled with BODIPY-GDP to determine if compounds can affect the nucleotide exchange (GDP to GTP) in KRAS signaling, Compounds were typically characterized using both protocols: fixed GTP concentrations and fixed inhibitor concentrations.
All reagents were prepared following manufacturer's protocol. 5 μL BODIPY-GDP and 10 μL of KRAS buffer were added to each well. A 3-fold serial dilution of compound in 5% DMSO was prepared. Typically, compounds were tested in the range of 0 μM to 50 μM, but the range could be modified depending on the characterization needs. 5 μL of diluted compound was added to the wells and the plate was centrifuged briefly to ensure all components were mixed before incubation at ambient temperature. After incubation for 2 hours, 10 μM GTP and 25 mM EDTA were mixed at a 1:1 ratio and 5 μL was added to the wells. The plate was then incubated for 1 hour at ambient temperature. After incubation, fluorescence was measured at […].
Data was analyzed by plotting fluorescence vs GTP concentration for control wells and compound wells.

[3] = KRAS (G12C) labeled with BODIPY-GDP, fixed GTP concentration, 2 hours compound incubation, fluorescence readout, read-out: IC50

Row | Compound | IC50 ([1]; Homo sapiens) | also measured
1 | C=CC(=O)N1CCN(c2nc(OC[C@@H]3CCCN3CCC(=O)O)nc3c2CCN(c2cccc4cccc(I)c24)C3)C[C@@H]1CC#N [Ex-10] | < 0.1 µM | –
2 | C=CC(=O)N1CCN(c2nc(OC[C@@H]3CCCN3CCCCNC(=O)CN3CCN4CCN5CCN(CC3)CC(=O)[O][Lu]([O]C(=O)C4)[O]C(=O)C5)nc3c2CCN(c2cccc4cccc(Cl)c24)C3)C[C@@H]1CC#N [Lu-CHL-003, N-[4-[(2S)-2-[[7-(8-chloro-1-naphthyl)-4-[(3S)-3-(cyanomethyl)-4-prop-2-enoyl-piperazin-1-yl]-6,8-dihydro-5Hpyrido[3,4-d]pyrimidin-2-yl]oxymethyl]pyrrolidin-1-yl]butyl]-2-(3,16,19-trioxo-2,17,18-trioxa-5,8,11,14-tetrazaλ3-lutetatricyclo[9.6.3,25,14]docosan-8-yl)acetamide] | – | IC50 [1]: 1 to 10 µM; IC50 [2]: < 1 µM
3 | C=CC(=O)N1CCN(c2nc(OC[C@@H]3CCCN3CCCCCCNC(=O)CN3CCN(CC(=O)O)CCN(CC(=O)O)CCN(CC(=O)O)CC3)nc3c2CCN(c2cccc4cccc(Cl)c24)C3)C[C@@H]1CC#N [CHL-001, 2-[4,7-bis(carboxymethyl)-10-[2-[6-[(2S)-2-[[7-(8-chloro-1-naphthyl)-4-[(3S)-3-(cyanomethyl)-4-prop-2-enoyl-piperazin-1-yl]-6,8-dihydro-5H-pyrido[3,4-d]pyrimidin-2-yl]oxymethyl]pyrrolidin-1-yl]hexylamino]-2-oxo-ethyl]-1,4,7,10-tetrazacyclododec-1-yl]acetic acid] | – | IC50 [1]: ≥ 10 µM
4 | N-[4-[(2S)-2-[[7-(8-chloro-1-naphthyl)-4-[(3S)-3-(cyanomethyl)-4-prop-2-enoyl-piperazin-1-yl]-6,8-dihydro-5H-pyrido[3,4-d]pyrimidin-2yl]oxymethyl]pyrrolidin-1-yl]butyL]1J-2-[(6S,9S, 12S, 21 S)-6,9,12,21-tetraethyl-3,16,19-trioxo-2,17,18-trioxa-5,8,11,14-tetraza-17,3-lutetatricyclo[9.6.3,25,14]docosan-8-yl]acetamide [Lu-CHL-005] | – | IC50 [1]: 0.1 to 1 µM
5 | C=CC(=O)N1CCN(c2nc(OC[C@@H]3CCCN3CCCC(=O)O)nc3c2CCN(c2cccc4cccc(I)c24)C3)C[C@@H]1CC#N [Ex-11, 4-[(2S)-2-[[4-[(3S)-3-(cyanomethyl)-4-prop-2-enoyl-piperazin-1-yl]-7-(8-iodo-1-naphthyl)-6,8-dihydro-5H-pyrido(3,4-d]pyrimidin-2-yl]oxymethyl]pyrrolidin-1-yl]butanoic acid] | < 0.1 µM | –
6 | C=CC(=O)N1CCN(c2nc(OC[C@@H]3CCCN3CCCCCCNC(=O)CN3CCN4CCN5CCN(CC3)CC(=O)[O][Lu]([O]C(=O)C4)[O]C(=O)C5)nc3c2CCN(c2cccc4cccc(Cl)c24)C3)C[C@@H]1CC#N [Lu-CHL-001, N-[6-[(2S)-2-[[7-(8-chloro-1-naphthyl)-4-[(3 S)-3-(cyanomethyl)-4-prop-2-enoyl-piperazin-1-yl]-6,8-dihydro-5H-pyrido[3,4-d]pyrimidin-2-yl]oxymethyl]pyrrolidin-1-yl]hexyl]-2-(3,16,19-trioxo-2,17,18-trioxa-5,8,11,14-tetraza-1λ3-lutetatricyclo[9,6,3,25,14]docosan-8-yl)acetamide] | – | IC50 [1]: 1 to 10 µM; IC50 [2]: 1 to 10 µM
7 | C=CC(=O)N1CCN(c2nc(OC[C@@H]3CCCN3CCOCc3cccc(I)c3)nc3c2CCN(c2cccc4cccc(Cl)c24)C3)C[C@@H]1CC#N [Ex-1, 2-[(2S)-4-[7-(8-chloro-1-naphthyl)-2-[[(2S)-1-[2-[(3-iodophenyl)methoxy]ethyl]pyrrolidin-2-yl]methoxy]-6,8-dihydro-5H-pyrido[3,4-d]pyrimidin-4-yl]-1-prop-2-enoyl-piperazin-2-yl]acetonitrile] | 0.1 to 1 µM | –
8 | C=CC(=O)N1CCN(c2nc(OC[C@@H]3CCCN3CCC(C)(C)C(=O)O)nc3c2CCN(c2cccc4cccc(I)c24)C3)C[C@@H]1CC#N [Ex-12, 4-[(2S)-2-[[4-[(3S)-3-(cyanomethyl)-4-pop-2-enoyl-piperazin-1-yl]-7-(8-iodo-1-naphthyl)-6,8-dihydro-5H-pyrido[3,4-d]pyrimidin-2-yl]oxymethyl]pyrrolidin-1-yl]-2,2-dimethyl-butanoic acid] | < 0.1 µM | –

Continued, in another order:

Row | IC50 ([1]; Homo sapiens) | Compound | also measured
9 | < 0.1 µM | C=CC(=O)N1CCN(c2nc(OC[C@@H]3CCCN3CCCC(=O)OCc3cccc(I)c3)nc3c2CCN(c2cccc4cccc(Cl)c24)C3)C[C@@H]1CC#N [Ex-6, (3-iodophenyl)methyl 4-[(2S)-2-[[7-(8-chloro-1-naphthyl)-4-[(3S)-3-(cyanomethyl)-4-prop-2-enoyl-piperazin-1-yl]-6,8-dihydro-5H-pyrido[3,4-d]pyrimidin-2-yl]oxymethyl]pyrrolidin-1-yl]butanoate] | –
10 | 0.1 to 1 µM | C=CC(=O)N1CCN(c2nc(OC[C@@H]3CCCN3CCC(C)(C)OC(=O)c3cccc(I)c3)nc3c2CCN(c2cccc4cccc(Cl)c24)C3)C[C@@H]1CC#N [Ex-8, [3-[(2S)-2-[[7-(8-chloro-1-naphthyl)-4-[(3S)-3-(cyanomethyl)-4-prop-2-enoyl-piperazin-1-yl]-6,8-dihydro-5Hpyrido[3,4-d]pyrimidin-2-yl]oxymethyl]pyrrolidin-1-yl]-1,1-dimethyl-propyl]3-iodobenzoate] | –
11 | 0.1 to 1 µM | C=CC(=O)N1CCN(c2nc(OC[C@@H]3CCCN3CCCCOCc3cccc(I)c3)nc3c2CCN(c2cccc4cccc(Cl)c24)C3)C[C@@H]1CC#N [Ex-3] | IC50 [2, 3]: 1 to 10 µM
12 | < 0.1 µM | C=CC(=O)N1CCN(c2nc(OC[C@@H]3CCCN3CC(O)CO)nc3c2CCN(c2cccc4cccc(I)c24)C3)C[C@@H]1CC#N (some centres unmarked) [Ex-13] | –
13 | < 0.1 µM | C=CC(=O)N1CCN(c2nc(OC[C@@H]3CCCN3C)nc3c2CCN(c2cccc4cccc(I)c24)C3)C[C@@H]1CC#N [Ex-9, 2-[(2S)-4-[7-(8-iodo-1-naphthyl)-2-[[(2S)-1-methylpyrrolidin-2-yl]methoxy]-6,8-dihydro-5H-pyrido[3,4-d]pyrimidin-4-yl]-1-prop-2-enoyl-piperazin-2-yl]acetonitrile] | IC50 [2, 3]: 1 to 10 µM
14 | 1 to 10 µM | C=CC(=O)N1CCN(c2nc(OC[C@@H]3CCCN3CCCNC(=O)c3cccc(I)c3)nc3c2CCN(c2cccc4cccc(Cl)c24)C3)C[C@@H]1CC#N [Ex-5, N-[3-[(2S)-2-[[7-(8-chloro-1-naphthyl)-4-[(3S)-3-(cyanomethyl)-4-prop-2-enoyl-piperazin-1-yl]-6,8-dihydro-5H-pyrido[3,4-d]pyrimidin-2-yl]oxymethyl]pyrrolidin-1-yl]propyl]-3-iodo-benzamide] | IC50 [2, 3]: 1 to 10 µM
15 | 0.1 to 1 µM | C=CC(=O)N1CCN(c2nc(OC[C@@H]3CCCN3CCCOCc3cccc(I)c3)nc3c2CCN(c2cccc4cccc(Cl)c24)C3)C[C@@H]1CC#N [Ex-2, 2-[(2S)-4-[7-(8-chloro-1-naphthyl)-2-[[(2S)-1-[3-[(3-iodophenyl)methoxy]propyl]pyrrolidin-2-yl]methoxy]-6,8-dihydro-5H-pyrido[3,4-d]pyrimidin-4-yl]-1-prop-2-enoyl-piperazin-2-yl]acetonitrile] | IC50 [2, 3]: 1 to 10 µM
16 | < 0.1 µM | C=CC(=O)N1CCN(c2nc(OC[C@@H]3CCCN3CCCOC(=O)c3cccc(I)c3)nc3c2CCN(c2cccc4cccc(Cl)c24)C3)C[C@@H]1CC#N [Ex-4] | –
17 | < 0.1 µM | C=CC(=O)N1CCN(c2nc(OC[C@@H]3CCCN3CC(CO)CO)nc3c2CCN(c2cccc4cccc(I)c24)C3)C[C@@H]1CC#N [Ex-14, 2-[(2S)-4-[2-[I(2S)-1-[3-hydroxy-2-(hydroxymethyl)propylpyrrolidin-2-yl]methoxy]-7-(8-iodo-1-naphthyl)-6,8-dihydro-5H-pyrido(3,4-d]pyrimidin-4-yl]-1-prop-2-enoyl-piperazin-2-yl]acetonitrile] | –
